# Reference: patent US20250236599A1, “LIPID NANOPARTICLES FOR OLIGONUCLEOTIDE DELIVERY” (ZIPHIUS NV, priority 2021, published 2025)
# Key:
# [1] = LNP particle size, polydispersity index and charge by Zeta Sizer; assay type: physicochemical; settings: LNP lipid:DOPE:Cholesterol:DMG-PEG 35:20:43.5:1.5, firefly luciferase saRNA; for Polydispersity Index (PI) / Z-average (nm): N/P approx. 40/1
# Description: Cationic lipids, DOPE, Cholesterol and DMG-PEG lipid were solubilized in ethanol or DMSO at a molar ratio of 35:20:43.5:1.5 and a concentration of 100:25:20:25 μg/μL for C12-200 or 170:25:20:25 μg/μL for the comparator lipids. Lipid nanoparticles (LNP) were prepared by targeting an N/P ratio of approximately 40/1 with saRNA. Briefly, the firefly luciferase saRNA of approximately 9659 nucleotides was diluted to 0.5 mg/mL in 5 mM citrate buffer, pH 4.5. Microfluidic mixer (Ignite from Precision Nanosystems, California, USA) was used to mix the lipid solution with the saRNA aqueous solution at a ratio of about 1:3 (vol/vol) with total flow rates above 10 ml/min. The ethanol was then removed, and the external buffer replaced with 10 mM TRIS-HCL, PH 7.4, by dialysis. Finally, the lipid nanoparticles were filtered through a 0.2 μm pore sterile filter. Lipid nanoparticle particle size was 50-150 nm diameter and polydispersity index (PI) of 0.1-0.4 as determined by Zeta Sizer (Malvern Panalytical, UK). The charge of the formulation was also measured by Zeta Sizer and ranged between 20 to −20 mV.
# [2] = test system: expression of the luciferase saRNA; test: In vivo bioluminescent imaging after intramuscular injection of LNP-formulated luciferase saRNA; settings: 1 μg LNP-formulated luciferase saRNA intramuscularly, female SWISS mice
# Description: (§1) Female SWISS mice (6 weeks old) were purchased from Janvier Laboratories (Paris, France) and kept in individually ventilated cages with access to food and water ad libitum. Mice were anesthetized with isoflurane (Zoetis, Louvain-La-Neuve, Belgium) (5% for induction and 2% for maintenance) and intramuscularly injected with a total of 1 μg in 100 μL Tris-HCL (50 μL per leg) LNP-formulated luciferase saRNA (for each group n=7). The expression of the luciferase induced bioluminescence was measured via non-invasive In vivo bioluminescent imaging (In vivo Imaging System (IVIS) Lumina III, Perkin Elmer, Waltham, Massachusetts, USA), 10 minutes after subcutaneous injection of […] of D-luciferin (GoldBio, Saint Louis, Missouri, USA, #LUCK-1G) were measured in day 0 (before injection), day 1, day 3, day 5, day 7, day 10, day 15 and day 20.
# [3] = saRNA loading / encapsulation efficiency, Quant-IT RiboGreen assay; assay type: physicochemical; settings: LNP lipid:DOPE:Cholesterol:DMG-PEG 35:20:43.5:1.5, firefly luciferase saRNA
# Description: The saRNA loading in LNP formulations was quantified using a Quant-IT RiboGreen assay (Thermo Fisher Scientific, Waltham, Massachusetts, USA) as previously described. 14 samples were diluted tenfold in 1x Tris HCL-EDTA (TE) buffer (10 mM Tris-HCL, 1 mM EDTA, pH 7.5) with or without 2% (v/v) Triton X-100 (Sigma-Aldrich, Saint Louis, Missouri, USA). Standard solutions were also prepared in 1xTE with or without 2% (v/v) Triton X-100 to account for any variation in fluorescence. The assay was performed according to the manufacturer's protocol. Samples were loaded on a black 96-well plate and analysed for fluorescence on a microplate reader (Tecan Infinite® 200 PRO) at an excitation of 485 nm and emission at 528 nm. Encapsulation efficiency was calculated between 80-100%.
# [4] = Weight evolution of the animals following administration of LNPs; assay type: in vivo; settings: female SWISS mice
# Description: as §1
# [5] = Day 1, 1 μg LNP-formulated saRNA intramuscularly
# [6] = Day 3, 1 μg LNP-formulated saRNA intramuscularly
# [7] = Day 5, 1 μg LNP-formulated saRNA intramuscularly
# [8] = Day 7, 1 μg LNP-formulated saRNA intramuscularly
# [9] = Day 10, 1 μg LNP-formulated saRNA intramuscularly
# [10] = Day 15, 1 μg LNP-formulated saRNA intramuscularly
# [11] = Day 20, 1 μg LNP-formulated saRNA intramuscularly
Zetapotential (mV) [1] [mV],Polydispersity Index (PI) [1],Z-average (nm) [1] [nm],Encapsulation (%) [3] [%],Weight ([4]; Day 0) [g],"Weight [4, 5] [g]","Weight [4, 6] [g]","Weight [4, 7] [g]","Weight [4, 8] [g]","Weight [4, 9] [g]","Weight [4, 10] [g]","Weight [4, 11] [g]",Structure (SMILES),Bioluminescence expression of LNPs ([2]; Day 1),Bioluminescence expression of LNPs ([2]; Day 3),Bioluminescence expression of LNPs ([2]; Day 5),Bioluminescence expression of LNPs ([2]; Day 7),Bioluminescence expression of LNPs ([2]; Day 10),Bioluminescence expression of LNPs ([2]; Day 15),Bioluminescence expression of LNPs ([2]; Day 20)
8.70,0.16,96.53,97.61,27.80,27.00,27.70,27.44,27.84,27.31,29.54,29.79,"CCCCCCCCCCCCCCOC(=O)CCN(CCC(=O)OCCCCCCCCCCCCCC)CCN(CCC(=O)OCCCCCCCCCCCCCC)CCN1CCN(CCN(CCC(=O)OCCCCCCCCCCCCCC)CCC(=O)OCCCCCCCCCCCCCC)CC1 [Comparator 2 (C2), reference compound]",2.19E+07,8.21E+07,2.21E+08,1.62E+08,2.27E+07,2.04E+05,9.42E+04
−10.65,0.18,65.27,93.93,27.51,26.21,28.67,28.56,29.01,29.61,30.77,31.87,"CCCCCCC(CCCC)C(=O)OCCCCN(CCCCOC(=O)C(CCCC)CCCCCC)CCN(CCCCOC(=O)C(CCCC)CCCCCC)CCN1CCN(CCN(CCCCOC(=O)C(CCCC)CCCCCC)CCCCOC(=O)C(CCCC)CCCCCC)CC1 (stereo not shown) [Compound 9-27, ((2-(4-(2-((2-(bis(4-((2-butyloctanoyl)oxy)butyl)amino)ethyl) (4-((2-butyloctanoyl)oxy)butyl)amino)ethyl)piperazin-1-yl)ethyl)azanediyl) bis(butane-4,1-diyl)bis(2-butyloctanoate)]",4.09E+07,1.51E+09,1.35E+09,9.33E+08,2.88E+06,2.77E+05,1.87E+05
−7.92,0.16,71.78,94.93,27.77,26.14,28.33,28.51,28.49,28.97,30.24,31.51,"CCCCCCC(CCCC)C(=O)OCCCCCCN(CCCCCCOC(=O)C(CCCC)CCCCCC)CCN1CCN(CCN(CCCCCCOC(=O)C(CCCC)CCCCCC)CCCCCCOC(=O)C(CCCC)CCCCCC)CC1 (stereo not shown) [Compound 9-34, ((piperazine-1,4-diylbis(ethane-2,1-diyl))bis(azanetriyl))tetrakis(hexane-6,1-diyl) tetrakis(2-butyloctanoate)]",4.79E+07,7.26E+08,7.42E+08,9.12E+08,4.70E+07,1.43E+05,3.37E+04
−16.38,0.17,54.53,93.33,27.00,26.94,28.46,28.26,28.11,27.91,29.69,30.94,"CCCCCCC(CCCC)C(=O)OCCN(CCOC(=O)C(CCCC)CCCCCC)CCN1CCN(CCN(CCOC(=O)C(CCCC)CCCCCC)CCOC(=O)C(CCCC)CCCCCC)CC1 (stereo not shown) [Compound 9-32, ((piperazine-1,4-diylbis(ethane-2,1-diyl))bis(azanetriyl))tetrakis(ethane-2,1-diyl) tetrakis(2-butyloctanoate)]",5.13E+06,1.31E+08,2.76E+08,3.71E+08,1.08E+07,6.35E+05,1.29E+05
